Assays:
[1] = biological target: T1, SMARCA2-HiBiT HeLa cells (protein which is expressed from the SMARCA2 gene) (Homo sapiens, UniProt P51531); test: SMARCA2 degradation assay (HiBiT-fusion HeLa cell line, 24 h, luminescence); assay type: cell-based
T1 construct: protein which is expressed from the SMARCA2 and SMARCA4 genes; host or cells: HeLa (SMARCA2-HiBiT engineered line)
Method in brief: (§1)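 In this 24-hour cellular degradation readout, HiBiT-tagged HeLa lines received compound at up to typically 10 μM down to 300 pM in 10 points. After lysis with LgBiT and substrate, luminescence signals were used to build dose-response curves for DC50.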

[2] = biological target: T2, SMARCA4-HiBiT HeLa cells (protein which is expressed from the SMARCA4 gene) (Homo sapiens, UniProt P51532); test: SMARCA4 degradation assay (HiBiT-fusion HeLa cell line, 24 h, luminescence); assay type: cell-based
T2 construct: protein which is expressed from the SMARCA2 and SMARCA4 genes; host or cells: HeLa (SMARCA4-HiBiT engineered line)
T2 sequence (P51532 whole entry, the tested form may be a part): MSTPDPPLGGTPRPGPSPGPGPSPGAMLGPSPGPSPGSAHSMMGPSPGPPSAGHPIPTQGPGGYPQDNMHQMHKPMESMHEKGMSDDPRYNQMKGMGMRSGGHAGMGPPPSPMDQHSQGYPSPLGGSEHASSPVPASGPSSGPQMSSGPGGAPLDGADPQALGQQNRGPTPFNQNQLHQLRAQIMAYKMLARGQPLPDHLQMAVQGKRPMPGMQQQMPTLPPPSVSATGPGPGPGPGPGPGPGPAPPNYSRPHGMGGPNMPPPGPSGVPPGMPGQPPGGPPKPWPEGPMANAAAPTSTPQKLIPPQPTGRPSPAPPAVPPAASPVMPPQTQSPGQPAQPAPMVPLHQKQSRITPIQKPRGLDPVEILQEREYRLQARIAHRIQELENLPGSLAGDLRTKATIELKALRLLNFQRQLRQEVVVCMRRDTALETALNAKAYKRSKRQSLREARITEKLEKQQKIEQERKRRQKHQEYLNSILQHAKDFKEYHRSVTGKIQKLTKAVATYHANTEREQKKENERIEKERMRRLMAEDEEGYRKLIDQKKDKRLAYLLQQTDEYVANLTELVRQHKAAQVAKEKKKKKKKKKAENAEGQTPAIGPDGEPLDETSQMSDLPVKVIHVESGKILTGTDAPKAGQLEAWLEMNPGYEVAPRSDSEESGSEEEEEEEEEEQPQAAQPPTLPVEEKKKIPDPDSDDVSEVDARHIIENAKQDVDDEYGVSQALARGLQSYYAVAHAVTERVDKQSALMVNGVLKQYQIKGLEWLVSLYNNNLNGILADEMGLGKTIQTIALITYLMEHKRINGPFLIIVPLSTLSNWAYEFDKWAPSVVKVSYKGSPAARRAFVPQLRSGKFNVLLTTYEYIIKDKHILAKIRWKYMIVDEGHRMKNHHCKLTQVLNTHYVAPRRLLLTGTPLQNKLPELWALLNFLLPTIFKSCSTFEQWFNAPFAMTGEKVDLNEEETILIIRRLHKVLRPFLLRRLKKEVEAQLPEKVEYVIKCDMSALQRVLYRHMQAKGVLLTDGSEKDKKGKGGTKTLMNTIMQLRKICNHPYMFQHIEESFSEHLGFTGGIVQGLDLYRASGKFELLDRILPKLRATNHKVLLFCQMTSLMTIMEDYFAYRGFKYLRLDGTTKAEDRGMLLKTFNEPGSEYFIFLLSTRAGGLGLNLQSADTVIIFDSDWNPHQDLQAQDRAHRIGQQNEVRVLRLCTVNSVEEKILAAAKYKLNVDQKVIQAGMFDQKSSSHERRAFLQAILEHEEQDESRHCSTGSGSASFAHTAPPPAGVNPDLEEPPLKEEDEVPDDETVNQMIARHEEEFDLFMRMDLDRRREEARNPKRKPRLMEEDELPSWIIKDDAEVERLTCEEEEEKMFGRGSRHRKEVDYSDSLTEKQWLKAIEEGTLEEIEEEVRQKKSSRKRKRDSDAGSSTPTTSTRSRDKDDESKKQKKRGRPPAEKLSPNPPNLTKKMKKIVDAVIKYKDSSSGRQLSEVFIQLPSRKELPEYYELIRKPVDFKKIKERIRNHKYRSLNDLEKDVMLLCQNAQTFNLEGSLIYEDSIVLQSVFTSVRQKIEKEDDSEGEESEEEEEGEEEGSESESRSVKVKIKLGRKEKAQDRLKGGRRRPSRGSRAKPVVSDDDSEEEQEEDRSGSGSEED
Method in brief: as §1

T1 sequence (P51531 whole entry, the tested form may be a part): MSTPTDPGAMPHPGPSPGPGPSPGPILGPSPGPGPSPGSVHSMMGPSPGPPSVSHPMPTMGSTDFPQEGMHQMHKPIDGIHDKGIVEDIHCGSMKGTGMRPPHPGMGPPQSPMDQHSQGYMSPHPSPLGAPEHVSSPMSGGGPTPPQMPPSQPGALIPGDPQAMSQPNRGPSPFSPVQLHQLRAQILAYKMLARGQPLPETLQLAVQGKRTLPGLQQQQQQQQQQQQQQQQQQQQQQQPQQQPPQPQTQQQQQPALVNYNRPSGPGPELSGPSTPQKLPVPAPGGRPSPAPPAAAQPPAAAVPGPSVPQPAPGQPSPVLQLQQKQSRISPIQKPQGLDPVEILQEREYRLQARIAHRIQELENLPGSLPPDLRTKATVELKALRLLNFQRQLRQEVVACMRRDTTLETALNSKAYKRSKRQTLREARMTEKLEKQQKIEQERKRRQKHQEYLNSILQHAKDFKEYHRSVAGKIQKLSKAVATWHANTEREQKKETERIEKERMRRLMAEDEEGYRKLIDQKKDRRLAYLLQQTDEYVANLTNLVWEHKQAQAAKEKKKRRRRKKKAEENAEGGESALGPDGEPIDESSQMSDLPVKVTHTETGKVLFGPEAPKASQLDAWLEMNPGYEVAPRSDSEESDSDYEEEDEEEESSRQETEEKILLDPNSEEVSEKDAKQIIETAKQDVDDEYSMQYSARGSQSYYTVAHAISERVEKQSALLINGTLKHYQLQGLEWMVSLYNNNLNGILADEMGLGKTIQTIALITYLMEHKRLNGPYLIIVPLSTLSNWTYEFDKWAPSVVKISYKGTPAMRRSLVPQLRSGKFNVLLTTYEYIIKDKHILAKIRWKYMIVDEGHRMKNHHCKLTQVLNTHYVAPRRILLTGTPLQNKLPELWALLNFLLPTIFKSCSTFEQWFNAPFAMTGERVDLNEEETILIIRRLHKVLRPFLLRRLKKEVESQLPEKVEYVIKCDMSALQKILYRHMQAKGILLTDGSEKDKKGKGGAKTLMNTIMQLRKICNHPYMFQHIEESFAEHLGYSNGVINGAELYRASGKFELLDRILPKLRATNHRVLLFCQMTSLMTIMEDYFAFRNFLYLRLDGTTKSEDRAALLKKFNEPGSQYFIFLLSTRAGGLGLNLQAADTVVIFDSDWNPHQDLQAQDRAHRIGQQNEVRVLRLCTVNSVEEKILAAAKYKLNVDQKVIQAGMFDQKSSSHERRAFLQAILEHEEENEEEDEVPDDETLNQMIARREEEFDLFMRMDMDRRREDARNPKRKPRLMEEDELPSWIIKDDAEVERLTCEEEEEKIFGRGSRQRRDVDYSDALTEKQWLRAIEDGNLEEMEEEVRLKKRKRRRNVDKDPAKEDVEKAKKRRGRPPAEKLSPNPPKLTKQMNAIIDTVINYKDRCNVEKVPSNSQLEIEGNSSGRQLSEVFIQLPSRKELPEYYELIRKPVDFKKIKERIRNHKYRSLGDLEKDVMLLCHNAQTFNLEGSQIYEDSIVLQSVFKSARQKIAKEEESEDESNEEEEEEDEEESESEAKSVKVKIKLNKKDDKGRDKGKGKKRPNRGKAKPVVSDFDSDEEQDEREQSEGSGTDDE

DC50 [1]	SMARCA2 % Degradation @ 1 μM ([1]; @ 1 μM)	DC50 [2]	inhibition at 1 µM ([2]; @ 1 μM)	SMARCA2 % Degradation @ 1 μM ([1]; 1 μM)	inhibition at 1 µM ([2]; 1 μM)	SMILES
50 to 500 nM	+++ (+++=>70%)	50 to 500 nM	> 70%			CC1CN(c2ccnc(C#CCNC(=O)c3cc4ncccn4n3)n2)CCCN1c1cc(-c2ccccc2O)nnc1N (stereo not drawn) [Compound P-29, N-(3-(4-(4-(3-amino-6-(2-hydroxyphenyl)pyridazin-4-yl)-3-methyl-1,4-diazepan-1-yl)pyrimidin-2-yl)prop-2-yn-1-yl)pyrazolo[1,5-a]pyrimidine-2-carboxamide]
50 to 500 nM	+ (+=<30%)	50 to 500 nM	30 to 70%			Nc1nnc(-c2ccccc2O)cc1N1CCN(c2ccnc(C#CCCCNC(=O)c3cc4ncccn4n3)n2)CC1 [Compound P-92, N-(5-(4-(4-(3-amino-6-(2-hydroxyphenyl)pyridazin-4-yl)piperazin-1-yl)pyrimidin-2-yl)pent-4-yn-1-yl)pyrazolo[1,5-a]pyrimidinc-2-carboxamidc]
50 to 500 nM	++ (++=30-70%)	50 to 500 nM	30 to 70%			Nc1nnc(-c2ccccc2O)cc1N1CCN(c2ccnc(C#CCNC(=O)c3cc4ccccc4[nH]3)n2)CC1 [Compound P-73, N-(3-(4-(4-(3-amino-6-(2-hydroxyphenyl)pyridazin-4-yl)piperazin-1-yl)pyrimidin-2-yl)prop-2-yn-1-yl)-1H-indole-2-carboxamide]
50 to 500 nM	++ (++=30-70%)	50 to 500 nM	30 to 70%			Nc1nnc(-c2ccccc2O)cc1N1CCCN(c2ccnc(C#CCn3ccc4ccccc43)n2)CC1 [Compound P-151, 2-(5-(4-(2-(3-(1H-indol-1-yl)prop-1-yn-1-yl)pyrimidin-4-yl)-1,4-diazepan-1-yl)-6-aminopyridazin-3-yl)phenol]
50 to 500 nM	+++ (+++=>70%)	500 to 5000 nM	> 70%			CN(C)c1cc(N2CCCN(c3cc(-c4ccccc4O)nnc3N)CC2)nc(C#CCNC(=O)c2cc3ncccn3n2)n1 [Compound P-139, N-(3-(4-(4-(3-amino-6-(2-hydroxyphenyl)pyridazin-4-yl)-1,4-diazepan-1-yl)-6-(dimethylamino)pyrimidin-2-yl)prop-2-yn-1-yl)pyrazolo[1,5-a]pyrimidine-2-carboxamide]
50 to 500 nM	++ (++=30-70%)	500 to 5000 nM	< 30%			C[C@@H]1CN(CC#Cc2nccc(N3CCCN(c4cc(-c5ccccc5O)nnc4N)CC3)n2)CCO1 [Compound P-313, 0-{5-[4-(2-{3-[(R)-2-methyl-4-morpholinyl]-1-propynyl}-4-pyrimidinyl)-1,4-diazepan-1-yl]-6-amino-3-pyridaziny1}phenol]
50 to 500 nM	+++ (+++=>70%)	50 to 500 nM	30 to 70%			C[C@@H]1CCN(c2cc(-c3ccccc3O)nnc2N)CCN1c1ccnc(C#CCN2CC3CC2(C)C3)n1 [Compound P-190, o-{5-[(R)-5-methyl-4-(2-{3-(1-methyl-2-azabicyclo[2.1.1]hex-2-yl)-1-propynyl}-4-pyrimidinyl)-1,4-diazepan-1-yl]-6-amino-3-pyridazinyl}phenol]
50 to 500 nM	++ (++=30-70%)	< 50 nM	< 30%			C[C@H]1CN(c2ccnc(C#CCn3ccnc3)n2)CCN1c1cc(-c2ccccc2O)nnc1N [Compound P-293, 0-{5-[(S)-4-{2-[3-(1-imidazolyl)-1-propynyl]-4-pyrimidinyl}-2-methyl-1-piperaziny1]-6-amino-3-pyridazinyl}phenol]
< 50 nM	++ (++=30-70%)	< 50 nM	< 30%			CC1CC(C)N1CC#Cc1nccc(N2CCN(c3cc(-c4ccccc4O)nnc3N)CC[C@H]2C)n1 (stereo partly drawn) [Compound P-249, o-{5-[(R)-4-{2-[3-(2,4-dimethyl-1-azetidinyl)-1-propynyl]-4-pyrimidinyl}-5-methyl-1,4-diazepan-1-yl]-6-amino-3-pyridaziny1} phenol]
< 50 nM	++ (++=30-70%)	< 50 nM	< 30%			Nc1nnc(-c2ccccc2O)cc1N1C[C@H]2C[C@@H]1CN2c1ccnc(C#CCN2CCCCC2)n1 [Compound P-285, 0-(5-{(1R,4R)-5-[2-(3-piperidino-1-propynyl)-4-pyrimidinyl]-2,5-diazabicyclo[2.2.1]hept-2-y1}-6-amino-3-pyridazinyl)phenol]
50 to 500 nM	++ (++=30-70%)	50 to 500 nM	30 to 70%			C[C@H]1CN(c2ccnc(C#CCNC(=O)c3cc4ncccn4n3)n2)CCN1c1cc(-c2ccccc2O)nnc1N [Compound P-48, (S)-N-(3-(4-(4-(3-amino-6-(2-hydroxyphenyl)pyridazin-4-yl)-3-methylpiperazin-1-yl)pyrimidin-2-yl)prop-2-yn-1-yl)pyrazolo[1,5-a]pyrimidine-2-carboxamide]
< 50 nM		< 50 nM		+++ (+++=>70%)	30 to 70%	C[C@@H]1CCN(c2cc(-c3ccccc3O)nnc2N)CCN1c1ccc(C#N)c(C#CCN2CC3CC2C3)n1 [Compound P-393, 6-{(R)-4-[3-amino-6-(o-hydroxyphenyl)-4-pyridazinyl]-7-methyl-1,4-diazepan-1-yl}-2-{3-(2-azabicyclo[2.1.1]hex-2-yl)-1-propynyl} nicotinonitrile]
50 to 500 nM	++ (++=30-70%)	50 to 500 nM	30 to 70%			Nc1nnc(-c2ccccc2O)cc1N1CCC2(CCN(c3ccnc(C#CCNC(=O)c4cc5ncccn5n4)n3)CC2)CC1 [Compound P-42, N-(3-(4-(9-(3-amino-6-(2-hydroxyphenyl)pyridazin-4-yl)-3,9-diazaspiro[5.5]undecan-3-yl)pyrimidin-2-yl)prop-2-yn-1-yl)pyrazolo[1,5-a]pyrimidine-2-carboxamide]
500 to 5000 nM	++ (++=30-70%)	500 to 5000 nM	30 to 70%			Nc1nnc(-c2ccccc2O)cc1N1CCN(c2ccnc(C#CCNC(=O)c3cc4ncccn4n3)n2)CC(F)C1 (stereo not drawn) [Compound P-44, N-(3-(4-(4-(3-amino-6-(2-hydroxyphenyl)pyridazin-4-yl)-6-fluoro-1,4-diazepan-1-yl)pyrimidin-2-yl)prop-2-yn-1-yl)pyrazolo[1,5-a]pyrimidine-2-carboxamide]
50 to 500 nM	+++ (+++=>70%)	50 to 500 nM	> 70%			Nc1nnc(-c2ccccc2O)cc1N1C[C@H]2C[C@@H]1CN2c1ccnc(C#CCNC(=O)c2cc3ncccn3n2)n1 [Compound P-25, N-(3-(4-((1R,4R)-5-(3-amino-6-(2-hydroxyphenyl)pyridazin-4-yl)-2,5-diazabicyclo[2.2.1]heptan-2-yl)pyrimidin-2-yl)prop-2-yn-1-yl)pyrazolo[1,5-a]pyrimidine-2-carboxamide]
50 to 500 nM	++ (++=30-70%)	50 to 500 nM	30 to 70%			Nc1nnc(-c2ccccc2O)cc1N1CCN(c2ccnc(C#CCNC(=O)c3cnn4cccnc34)n2)CC1 [Compound P-71, N-(3-(4-(4-(3-amino-6-(2-hydroxyphenyl)pyridazin-4-yl)piperazin-1-yl)pyrimidin-2-yl)prop-2-yn-1-yl)pyrazolo[1,5-a]pyrimidine-3-carboxamide]
50 to 500 nM	++ (++=30-70%)	50 to 500 nM	30 to 70%			CSCC#Cc1nccc(N2CCCN(c3cc(-c4ccccc4O)nnc3N)CC2)n1 [Compound P-323, 0-[6-amino-5-(4-{2-[3-(methylthio)-1-propynyl]-4-pyrimidinyl}-1,4-diazepan-1-yl)-3-pyridazinyl]phenol]
50 to 500 nM	+++ (+++=>70%)	50 to 500 nM	30 to 70%			Cc1nn2ccn(CC#Cc3nccc(N4CCCN(c5cc(-c6ccccc6O)nnc5N)CC4)n3)c(=O)c2c1C [Compound P-115, 5-(3-(4-(4-(3-amino-6-(2-hydroxyphenyl)pyridazin-4-yl)-1,4-diazepan-1-yl)pyrimidin-2-yl)prop-2-yn-1-yl)-2,3-dimethylpyrazolo[1,5-a]pyrazin-4(5H)-one]
50 to 500 nM		50 to 500 nM		+++ (+++=>70%)	> 70%	C[C@@H]1CCN(c2cc(-c3ccccc3O)nnc2N)CCN1c1ccnc(C#CCN2CCCC2=O)c1 [Compound P-390, 1-[3-(4-{ (R)-4-[3-amino-6-(o-hydroxyphenyl)-4-pyridaziny1]-7-methyl-1,4-diazepan-1-yl}-2-pyridyl)-2-propynyl]-2-pyrrolidinone]

SMILES	DC50 [1]	SMARCA2 % Degradation @ 1 μM ([1]; @ 1 μM)	DC50 [2]	inhibition at 1 µM ([2]; @ 1 μM)	SMARCA2 % Degradation @ 1 μM ([1]; 1 μM)	inhibition at 1 µM ([2]; 1 μM)
Nc1nnc(-c2ccccc2O)cc1N1CC2CCC(C1)N2c1ccnc(C#CCn2nnc3ccccc32)n1 [Compound P-132, 2-(5-(8-(2-(3-(1H-benzo[d][1,2,3]triazol-1-yl)prop-1-yn-1-yl)pyrimidin-4-yl)-3,8-diazabicyclo| 3.2.1 |octan-3-yl)-6-aminopyridazin-3-yl)phenol]	500 to 5000 nM	++ (++=30-70%)	500 to 5000 nM	30 to 70%		
CN(C)CC#Cc1nccc(N2C3CCC2CN(c2cc(-c4ccccc4O)nnc2N)C3)n1 [Compound P-134, 2-(6-amino-5-(8-(2-(3-(dimethylamino)prop-1-yn-1-yl)pyrimidin-4-yl)-3,8-diazabicyclo[3.2.1]octan-3-yl)pyridazin-3-yl)phenol]	50 to 500 nM	++ (++=30-70%)	< 50 nM	30 to 70%		

Source: patent US20260265238A1, “COMPOUNDS AND PHARMACEUTICAL COMPOSITIONS THAT DEGRADE SWI/SNF-RELATED MATRIX-ASSOCIATED ACTIN-DEPENDENT REGULATOR OF CHROMATIN SUBFAMILY A” (Plexium, Inc., priority 2023, published 2026)
